US9604932B2 (priority 2013, dated 2017)

Experiments:
[1] = Plasma pharmacokinetics in sheep (release of R-100 from R-107), LCMS; format: in vivo; settings: IV R-100 20 mg/kg bolus
Experimental: In the following two experiments, the pharmacokinetic of releasing R-100 from R-107, via R-105 that is the reduced form of R-100, was studied in vivo according to the protocol described herein.
100 μl aliquots plasma obtained from R-107-treated sheep or pig were thawed and 200 μl ice-cold ethanol was added to each 100 μl sample to precipitate protein. Samples were then vortexed, placed on ice for 10 minutes, and then spun down at room temperature for 15 minutes. A first 100 μl supernatant from each spun sample was withdrawn and placed in a labeled HPLC micro vial to which 300 μl MPA (LC mobile phase A) was added, and the vial contents were then mixed and submitted for LCMS analysis (kept at 4° C.). The concentration of R-107 was measured in this sample as was the concentration of R105. A second 100 μl supernatant from each spun sample was added to a labelled HPLC micro vial to which 300 μl MPA and 2 μl of Reducing solution (ascorbic acid, 1.0 mg/ml in water) were added. These vials were vortexed; incubated at 50° C. for 1 hour with gentle shaking; and were then cooled to 4° C. and submitted for LCMS analysis. This sample was analyzed for R105, i.e., reduced form of R-100, and the amount measured thus represents the sum of R-100 and R-105 originally present in the plasma. The concentration of R-100 can be calculated from that of the R-105 in the second sample minus that of R-105 in the first sample. However, the concentrations of R-105 were seen to be low (approximately 10% or less of those of R-100) and so the results reported below as R-100 are not corrected for R-105.
Sets of standards (R-100, R-105 and R-107) were prepared by spiking individually in pig plasma. 100 μl aliquots of these spiked plasma samples, after thawing, were included in the above extraction protocol.
Analysis method were carried out with an Agilent HPLC stack, with column eluate directed, via a diverter valve, into the source of an AB Sciex ‘Qstar Elite’ Hybrid TOF, high-resolution mass spectrometer. LC column: Phenomenex Kinetex C18 2.6u 100A, 2.1×50 mm. LC mobile phase A: H2O with 0.02% trifluoroacetic acid (TFA), 0.1% formic acid (HOF); Phase B: acetonitrile (ACN) with 0.02% TFA, 0.1% HOF. Mobile phase flow rate=500 μl/min. Injection size: 8 μl, via Agilent 1100 u-WPS autosampler. […]

[2] = cited from earlier work

CC1(C)CC(CO[N+](=O)[O-])C(C)(C)N1[O] (centres unmarked) [R-100, 3-nitratomethyl-2,2,5,5-tetramethylpyrrolidinyloxy, reference compound]
R-100 in plasma ([1]; 0 hrs post dose): 0 µg/mL | R-100 in plasma ([1]; 0.08 hrs post dose): 6.72 µg/mL | R-100 in plasma ([1]; 0.17 hrs post dose): 6.11 µg/mL | R-100 in plasma ([1]; 0.25 hrs post dose): 5.31 µg/mL | R-100 in plasma ([1]; 0.5 hrs post dose): 2.72 µg/mL | R-100 in plasma ([1]; 1 hrs post dose): 1.63 µg/mL | R-100 in plasma ([1]; 2 hrs post dose): 0.7 µg/mL | R-100 in plasma ([1]; 4 hrs post dose): 0.28 µg/mL | R-100 in plasma ([1]; 8 hrs post dose): 0.03 µg/mL | Solubility in organic solvents [2]: soluble in certain organic solvents such as dimethyl sulfoxide (DMSO) | Solubility in water [2]: highly insoluble in water
